# Results taken from US4089947A, “Antibiotic compositions containing validamycin compounds” (priority 1976, dated 1978).
# “And” between values parts separate entries of the source, which are not always exact repeats. Identical values can stand only once.
# Legend:
# Rhyzoctonia solani = experiment: Cucumber damping-off control test; assay type: in vivo; details: 14 days after sowing
# Protocol: Cucumber damping-off control test
# Rhyzoctonia solani is cultured on barley medium at 28° C for 5 days. A field soil sample is packed into clay pots 9 cm in diameter, which are then sterilized with steam. The chaff inoculum is evenly worked into the cover soil of each pot to the depth of about 3 cm, at the rate of 2g./pot. The pots are kept in an incubation chamber at 28° C for 4 days and, then, transferred to a greenhouse.
# As per Experiment 1, the drug is sprayed onto the soil surface at the rate of 30 ml./6 pots/group.
# Healthy seeds of cucumber (variety: Yonyo) are sown by burial in the pots immediately after treatment, at the rate of 10 seeds/pot. The pots are then placed in a greenhouse at 32°-28° C.
# 14 days after sowing, the results are evaluated against the following coefficients of lesion and the degrees of damage are calculated.
# Coefficients of lesion (I)
# 0.5 : Root hairs alone are slightly affected.
# 1 : Aerial portions near soil surface and roots affected.
# 2 : Early stage of damping-off.
# 3 : Affected at germination; growth inhibited.
# Degree of damage (%) =(Σ(nI))/3 × N × 100 wherein n means the number of samples corresponding to each coefficient of lesion and N means the total number of plants.
# Pellicularia sasakii [1] = experiment: Abnormal branching of hyphal tips of Pellicularia sasakii (agar dilution bioassay); assay type: cell-based; details: for highest dilution factor that causes an abnormal branching at the hyphal tips of Pellicularia sasakii: 1 mg./ml. aqueous solution as stock solution; for dilution unit (maximum dilution which produces abnormal branching): aqueous solution containing 1000 γ/ml., 27° C for 40 hours
# Protocol: Therefore, the bioassay of the antibiotics should be conducted in the following manner.
# Pellicularia sasakii is used as the test organism employing plain agar as the assay medium. The test organism is cultivated on a potato (sucrose) agar slant for 2 to 5 days, and the resulting culture is used to inoculate at the center of a 9-cm Petri dish plate of modified Pfeffer's medium, which is then incubated at 27° C for 2 days. By the end of this period, the mycelium will have spread over the entire surface of the plate. The growth on the circumference about 3 to 3.5 cm in radius from the center is cut out with a cork borer and the agar disc thus obtained is used as the inoculum.
# A serial dilution series of agar plants containing varying concentrations of the antibiotics is prepared in the same manner as a conventional agar dilution method.
# A glass disc of 8 mm in diameter and about 0.2 mm thick, is placed in the center of each of the aforementioned dilution series of agar plates, and the agar disc inoculum is then placed on the glass disc. After incubation at 27° C for 40 hours, the result is evaluated. […] The term dilution unit means the value of maximum dilution which produces such abnormal branching.
# Modified Pfeffer's medium, which is employed in this assay, has the following composition.
# Before using the medium, the following vitamins are added in the specified amounts. (Weight per ml. of medium)
# When a 1 mg./ml. aqueous solution of each of validamycins C, D, E and F and validoxylamines A and B is used as a stock solution, the highest dilution factor that causes an abnormal branching at the hyphal tips of Pellicularia sasakii is as follows.
# bacteria and fungi = experiment: Antimicrobial potency / growth inhibition in vitro; assay type: cell-based
# [2] = pKa' (neutralization, in aqueous solution); assay type: physicochemical
# Text: 3. The elementary analysis, the molecular formulas as calculated therefrom, pKa' values, neutralization equivalents (molecular weight) and optical rotation values are given in Table 2.
# Solubilities = assay type: physicochemical; details: methanol
# Mice = experiment: Acute toxicity in mice, intravenous injection; assay type: in vivo
# Protocol: (§1) The toxicity of the antibiotics can be confirmed, for instance, by administering each of the validamycins C, D, E and F, and validoxylamines A and B, intravenously to mice and measuring the LD50 value, or by measuring the median lethal dose (48 hours) for Oryzias latipes.
# Oryzias latipes = experiment: Acute toxicity for Oryzias latipes (median lethal dose, 48 hours); assay type: in vivo; details: leaving in water solution
# Protocol: as §1
# Pellicularia sasakii [3] = experiment: Rice sheath blight control test, preventive (prophylactic); assay type: in vivo; details: 10 days after application, untreated 34.4cm
# Protocol: (§2) Rice sheath blight control test
# (§3) Rice Plants (variety: Kinmaze) are planted in earthen pots 9 cm in diameter, 3 stocks per pot. Seedlings 80 days after potting are tested and 6 pots each of them are grouped.
# (§4) Pathogenic fungi Pellicularia sasakii is cultivated on a plate of potato infusion-sugar-agar at 30°C for 48 hours, and its agar disc 10mm in diameter is cut out from a peripheral colony. The disc is inserted into the inside space of the leaf sheath near the soil surface, a disc per stem. The pots are kept in a PVC shelter at the temperature of 32°-25° C and the relative humidity of 100-70%. Inoculation is carried out immediately after the applied drug has been air-dried in the prophylactic test, and 3 days before application in the remedial test.
# (§5) 10 days after application of the drug, the length of each stem from ground level to the upper edge of the lesion is directly measured.
# Pellicularia sasakii [4] = experiment: Rice sheath blight control test, remedial; assay type: in vivo; details: inoculation 3 days before application, untreated 34.4cm
# Protocol: as §2, §3, §4, §5
# Cladosporium fulvum = experiment: Tomato leaf mold control test; assay type: in vivo; details: 50 ppm; 14 days after inoculation; inoculated 3 days before application
# Protocol: Tomato leaf mold control test
# Tomato plants (variety: ponterosa) are planted in 12 cm in diameter pots, one plant per pot. The seedlings 50 days after potting are used, 6 pots/group.
# Applied at the rate of 100 ml./6 pots/group as per Experiment 1.
# Pathogenic fungi Cladosporium fulvum is cultured on a potato infusion-sucrose plate at 20° C for 14 days, and a suspension of conidia (5×10^5 /ml.) is prepared from the culture.
# The plants are spray-inoculated with the suspension 3 days before application of the drug, at the rate of 5 ml. per pot. The pots are kept in an inoculation chamber at 25° C for 24 hours, and, then they are transferred to a greenhouse.
# 14 days after inoculation, the specific ratio of the average area of lesion in the leaves is measured.
# plant diseases = experiment: Control of plant diseases (general statement); assay type: in vivo; details: for controlling effect against plant diseases, for example, the sheath blight of the rice plant: application in vivo; for effectiveness against sheath blight and stem rot of rice plant, damping off and sclerotial blight of vegetables, flowering plants and lumber seedlings: in vivo
# [5] = system: men and beasts, as well as to fish; experiment: Harmlessness to men, beasts and fish (general statement); details: in vivo
# useful plants = experiment: Effect on useful plants (general statement); assay type: in vivo; details: even when applied in a high concentration
Compound,Degree of damage (Rhyzoctonia solani; 5 ppm),Degree of damage (Rhyzoctonia solani; 20 ppm),Degree of damage (Rhyzoctonia solani; 80 ppm),highest dilution factor that causes an abnormal branching at the hyphal tips of Pellicularia sasakii (Pellicularia sasakii [1]),dilution unit (maximum dilution which produces abnormal branching) (Pellicularia sasakii [1]),antimicrobial potency / growth inhibition of bacteria and fungi in vitro (bacteria and fungi),pKa' [2],solubility in methanol (Solubilities),LD50 (Mice),TLm (Oryzias latipes),Preventive effect (percent of the average length of lesion/stem per control untreated) (Pellicularia sasakii [3]; 3 ppm),Preventive effect (percent of the average length of lesion/stem per control untreated) (Pellicularia sasakii [3]; 10 ppm),Preventive effect (percent of the average length of lesion/stem per control untreated) (Pellicularia sasakii [3]; 30 ppm),Preventive effect (percent of the average length of lesion/stem per control untreated) (Pellicularia sasakii [3]; 100 ppm),Preventive effect (percent of the average length of lesion/stem per control untreated) (Pellicularia sasakii [3]; 300 ppm),Remedial effect (percent of the average length of lesion/stem per control untreated) (Pellicularia sasakii [4]; 3 ppm),Remedial effect (percent of the average length of lesion/stem per control untreated) (Pellicularia sasakii [4]; 10 ppm),Remedial effect (percent of the average length of lesion/stem per control untreated) (Pellicularia sasakii [4]; 30 ppm),Remedial effect (percent of the average length of lesion/stem per control untreated) (Pellicularia sasakii [4]; 100 ppm),Remedial effect (percent of the average length of lesion/stem per control untreated) (Pellicularia sasakii [4]; 300 ppm),further results
"O=[N+]([O-])c1c(Cl)c(Cl)c(Cl)c(Cl)c1Cl [Pentachloronitrobenzene, reference compound]",100%,100%,100%,–,–,–,–,–,–,–,–,–,–,–,–,–,–,–,–,–,–
OCC1CC(NC2C=C(COC3OC(CO)C(O)C(O)C3O)C(O)C(O)C2O)C(O)C(O)C1OC1OC(CO)C(O)C(O)C1O (stereo not shown) [Validamycin C],100%,84%,0%,100,100 dilution unit/ml.,no antimicrobial potency,6.0 ± 0.2,more sparingly soluble,> 2000 mg/kg,> 1000 ppm,46%,34%,4%,1%,0%,68%,22%,12%,10%,7%,"Specific area of lesion (Cladosporium fulvum): 18%; controlling effect against plant diseases, for example, the sheath blight of the rice plant (plant diseases): excellent controlling effect; effectiveness against sheath blight and stem rot of rice plant, damping off and sclerotial blight of vegetables, flowering plants and lumber seedlings (plant diseases): very effective; harmfulness to men and beasts, as well as to fish [5]: substantially harmless; effect on germination, growth, yield and other features of useful plants (useful plants): do not substantially affect"
OCC1=C[C@@H](N[C@@H]2C[C@@H](CO[C@@H]3O[C@H](CO)[C@@H](O)[C@H](O)[C@H]3O)[C@H](O)[C@@H](O)[C@H]2O)[C@H](O)[C@H](O)[C@H]1O [Validamycin D],100%,93%,0%,10,10 dilution unit/ml.,no antimicrobial potency,6.0 ± 0.2,soluble,> 2000 mg/kg,> 1000 ppm,28%,5%,1%,0%,0%,–,99%,20%,11%,8%,"Specific area of lesion (Cladosporium fulvum): 18% and 25%; controlling effect against plant diseases, for example, the sheath blight of the rice plant (plant diseases): excellent controlling effect; effectiveness against sheath blight and stem rot of rice plant, damping off and sclerotial blight of vegetables, flowering plants and lumber seedlings (plant diseases): very effective; harmfulness to men and beasts, as well as to fish [5]: substantially harmless; effect on germination, growth, yield and other features of useful plants (useful plants): do not substantially affect"
OCC1=C[C@H](N[C@H]2C[C@H](CO)[C@@H](O[C@@H]3O[C@@H](CO)[C@@H](O[C@H]4O[C@@H](CO)[C@@H](O)[C@H](O)[C@H]4O)[C@H](O)[C@H]3O)[C@@H](O)[C@H]2O)[C@@H](O)[C@H](O)[C@H]1O [Validamycin E],10%,0%,0%,"70,000 - 80,000",80000 dilution unit/ml.,no antimicrobial potency,6.1 ± 0.2,more sparingly soluble,> 2000 mg/kg,> 1000 ppm,3%,2%,0%,0%,0%,14%,12%,11%,5%,3%,"Remedial effect (percent of the average length of lesion/stem per control untreated) (Pellicularia sasakii [4]; 1 ppm): 41%; Specific area of lesion (Cladosporium fulvum): 2%; controlling effect against plant diseases, for example, the sheath blight of the rice plant (plant diseases): excellent controlling effect; effectiveness against sheath blight and stem rot of rice plant, damping off and sclerotial blight of vegetables, flowering plants and lumber seedlings (plant diseases): very effective; harmfulness to men and beasts, as well as to fish [5]: substantially harmless; effect on germination, growth, yield and other features of useful plants (useful plants): do not substantially affect"
"Methyl arsonic acid ammonium complex salt [MAFA, reference compound]",–,–,–,–,–,–,–,–,–,–,76%,51%,0%,0%,0%,89%,30%,15%,13%,10%,–
